In patent EP0939136A1, “Assay for predicting the angiographic response to lipid-lowering therapy in patients” (Academisch Ziekenhuis bij de Universiteit van Amsterdam, priority 1998, dated 1999):

How the values were obtained:
Type in all cases: in vivo, male patients
[1] = REGRESS trial: computer-assisted quantitative coronary angiography (MSD, MOD); settings: for MOD decrease: median (IQR) / MSD decrease: mean (SD): 40 mg/day, two years, larger figure = more progression of atherosclerosis
Method: (§1) 807 Male patients participating in the Regression Growth Evaluation Statin Study (REGRESS), which has previously been described in detail (Kuivenhoven et al., Arterioscler. Thromb. Vasc. Biol. 17:560-568 (1997)) were prospectively studied. In short, study participants were required to have at least one coronary artery with a stenosis off >50 percent as assessed by coronary angiography, a plasma total cholesterol concentration of 155-310 mg per deciliter (4 to 8 millimole per liter) and triglycerides of 350 mg per deciliter(< 4 millimole per liter). Patients were subsequently randomized to treatment with pravastatin sodium (Pravachol®; 40 mg/day ) or to placebo for a period of two years. The placebo group contained 396 patients and the group treated with pravastatin contained 411 patients.
Computer-assisted quantitative coronary angiography was carried out at the start and at the end of the study. The two following primary measures of outcome were used: (a) the change in the average Mean Segment Diameter (MSD) per patient (also known as Mean Lumen Diameter) reflecting diffuse changes of atherosclerosis, and (b) the change in the average Minimum Obstruction Diameter […]) which reflects the focal change of atherosclerosis. Given these definitions, one should note that a greater decrease in MSD and/or MOD reflects more progression of coronary atherosclerosis.
(§2) The differences between carriers of the three TaqIB genotypes (i.e. B1B1, B1B2, and B2B2) were tested using one-way ANOVA or Pearson's Chi-square test. Changes in lipids, lipoproteins and angiographic parameters during the trial period were quantified with means and standard deviations, and the differences within the two medication groups were tested using one-way covariance analysis with baseline levels as covariates.
The interaction between the three CETP TaqIB genotypes and medication (placebo/pravastatin) was tested using the interaction test of two-way covariance analysis. It was checked whether the above interaction between genotype and medication was dependent of baseline HDL cholesterol concentration, changes in HDL during the trial, baseline MSD, baseline MOD, and each of hepatic lipase or lipoprotein lipase activity by using these as covariates in two-way covariance analysis. The latter analysis was also carried out to test if the significant differences in decrease in either MSD or MOD as identified amongst the TaqIB subgroups in the placebo group, were dependent on the above parameters.

[2] = REGRESS trial: in-trial changes in plasma lipids and lipoproteins; settings: 40 mg/day, two years
Method: as §1
Plasma lipids and lipoproteins were measured using standard techniques (Groenemeyer et al., Circulation 95:2628-2653 (1997)). Due to a lack of sufficient aliquots of plasma, CETP concentrations were determined in 237 patients at baseline, and in only 68 pravastatin-treated subjects at the end of the trial. These measurements were performed by solid phase radioimmunoassay using recombinant human protein (provided by Dr. A.Tall; Columbia University, New York) as standard and a CETP monoclonal antibody, TP2 (produced by Dr. R. Milne; University of Ottawa Heart Institute; Ottawa, McPherson et al., Arterioscler. Thromb 11:797-804 (1991). In addition, the lipase and lipoprotein lipase activities were measured as reported (Groenemeyer et al., supra).
as §2

[3] = REGRESS trial: events (death and myocardial infarction); settings: 40 mg/day, two years
Method: as §1
Differences in rate of events between genotypes were analyzed with Pearson Chi-square tests within the medication groups, and the interaction between genotype and medication with logistic regression. Within each of the patient groups, the Hardy-Weinberg equilibrium was tested by means of gene counting and χ^2 analysis. Throughout, a P value of 0.05 was interpreted as representing a statistically significant difference. All statistical analyses were carried out with the Statistical Analysis System (SAS, version 6.1, SAS Institute, Cari, NC) and adapted from the EGRET Manual, (Statistical and Epidemiological Research Corporation, 1991, Seattle, Washington, USA).
Abbreviations: MSD = mean segment Diameter; MOD = minimum obstruction diameter (Note: A larger figure for either a decrease in mean segment diameter (MSD) or minimum obstruction diameter (MOD) indicates more progression of atherosclerosis). SD = standard deviation; IQR = interquartile range; * P value of covariance analysis of the change measures with baseline values as covariate, or chi-square test (where appropriate), comparing the three CETP-TaqIB genotypes; ^† P value of the interaction test of the interaction between treatment (placebo/pravastatin) and the CETP TaqIB genotype (B1B1-B1B2-B2B2) of covariance analysis with baseline values as covariate or of logistic regression, where appropriate. P values while comparing TaqIB subgroup of the placebo group with the pravastatin group: ^‡ P<0.001; ^§ P<0.38; ^¶ P<0.30; ^¥ P<0.002; ** P<0.01; ^†† P<0.48. ? Events are defined as death and myocardial infarction. For conversion from mg.dL^-1 to mmol.L^-1 for total cholesterol, LDL cholesterol and HDL cholesterol levels, multiply by factor 0.02586. For conversion of triglyceride levels from mg.dL^-1 to mmol.L^-1, use 0.01129. [formula] [formula] [formula]

CETP = test: Plasma CETP concentration by solid phase radioimmunoassay; settings: 68 pravastatin-treated subjects, P<0.001
Method: as §1
Plasma lipids and lipoproteins were measured using standard techniques (Groenemeyer et al., Circulation 95:2628-2653 (1997)). Due to a lack of sufficient aliquots of plasma, CETP concentrations were determined in 237 patients at baseline, and in only 68 pravastatin-treated subjects at the end of the trial. […]

[4] = CETP TaqIB genotype B1B1 (n=136)
[5] = CETP TaqIB genotype B1B2 (n=212)
[6] = CETP TaqIB genotype B2B2 (n=63)

## CC[C@H](C)C(=O)O[C@H]1C[C@H](O)C=C2C=C[C@H](C)[C@H](CC[C@@H](O)C[C@@H](O)CC(=O)O)[C@H]21 [Pravastatin, pravastatin sodium]
[1]; B2B2 homozygotes, end of the study
  progression of coronary atherosclerosis compared with counterparts in the placebo group: statistically non-significant larger progression
[1]; [4]
  MOD decrease: median (IQR): 0.01 (.19) mm
  MSD decrease: mean (SD): 0.05 (.16) mm
[1]; [5]
  MOD decrease: median (IQR): 0.04 (.21) mm
  MSD decrease: mean (SD): 0.07 (.20) mm
[1]; [6]
  MOD decrease: median (IQR): 0.04 (.22) mm
  MSD decrease: mean (SD): 0.09 (.16) mm
[1]; carriers of one B1 allele (B1B2), MOD, P<0.01
  progression of coronary atherosclerosis compared with counterparts in the placebo group: significantly less focal atherosclerosis
[1]; carriers of two B1 alleles (B1B1), smaller decreases of MSD and MOD (P<0.001, P<0.002)
  progression of coronary atherosclerosis compared with counterparts in the placebo group: significantly less progression of coronary atherosclerosis
[2]; [4]
  HDL cholesterol incr.: mean (SD): 4.3 (6.2) mg.dL^-1
  LDL cholesterol red.: mean (SD): 56.8 (26.7) mg.dL^-1
  Total cholesterol red.: mean (SD): 53.8 (32.1) mg.dL^-1
  Triglyceride red.: ln(g.mean) (CV): 7.1 (32.8) mg.dL^-1
[2]; [5]
  HDL cholesterol incr.: mean (SD): 3.9 (7.0) mg.dL^-1
  LDL cholesterol red.: mean (SD): 49.5 (29) mg.dL^-1
  Total cholesterol red.: mean (SD): 48.3 (32.5) mg.dL^-1
  Triglyceride red.: ln(g.mean) (CV): 7.1 (37.2) mg.dL^-1
[2]; [6]
  HDL cholesterol incr.: mean (SD): 3.5 (6.6) mg.dL^-1
  LDL cholesterol red.: mean (SD): 56.5 (33.6) mg.dL^-1
  Total cholesterol red.: mean (SD): 54.1 (35.2) mg.dL^-1
  Triglyceride red.: ln(g.mean) (CV): 5.3 (38.1) mg.dL^-1
[3]; [4]
  Events (yes/no): (%): 2.9%
  Events (yes/no): n: 4
[3]; [5]
  Events (yes/no): (%): 1.9%
  Events (yes/no): n: 4
[3]; [6]
  Events (yes/no): (%): 0.0%
  Events (yes/no): n: 0
CETP; end of the trial (baseline 2.03±0.53)
  plasma CETP concentration: 1.71±0.46 µg per milliliter
CETP; end of the trial compared with baseline
  reduction in plasma CETP concentrations: 16%
